In patent publication US11590156B2, “RNAi agents for hepatitis B virus infection” (Arrowhead Pharmaceuticals, Inc., priority 2016, dated 2023):

Columns and labels:
[1] = test system: HBV genotype C; serum HBsAg; test: Serum HBsAg levels in HBV-infected humanized FRG model mice; assay type: in vivo, FRG mice transplanted with human hepatocytes; conditions: mouse A-1; PBS (no RNAi agent); oral daily gavage 0.01 mg/kg Entecavir from day 1; Day 8
Method: ii) Serum Hepatitis B surface antigen (HBsAg) levels: Serum was collected and diluted 10 to 8000-fold in PBS containing 5% nonfat dry milk. Secondary HBsAg standards diluted in the nonfat milk solution were prepared from serum of ICR mice (Harlan Sprague Dawley) that had been transfected with 10 μg HBsAg-expressing plasmid pRc/CMV-HBs (Aldevron, Fargo, N. Dak.). HBsAg levels were determined with a GS HBsAg EIA 3.0 kit (Bio-Rad Laboratories, Inc., Redmond, Wash.) as described by the manufacturer. Recombinant HBsAg protein, ayw subtype, also diluted in nonfat milk in PBS, was used as a primary standard (Aldevron). […]
Serum was collected on day 8, day 15, day 22, day 29, day 36, and day 40 and serum Hepatitis B surface antigen (HBsAg) levels were determined pursuant to the procedure set forth in Example 2, above.

[2] = test system: HBV genotype C; serum HBV DNA; test: Serum HBV DNA levels in HBV-infected humanized FRG model mice; assay type: in vivo, FRG mice transplanted with human hepatocytes; conditions: for Serum HBV DNA levels normalized to the average of pre-treatment day −10 and day −3: PBS (no RNAi agent), oral daily gavage 0.01 mg/kg Entecavir from day 1
Method: iv) Serum HBV DNA levels: Equal volumes of serum from mice in a group or subgroup were pooled to a final volume of 100 μL. DNA was isolated from serum samples using the QIAamp MinElute Virus Spin Kit (Qiagen, Valencia, Calif.) following the manufacturer's instructions. Sterile 0.9% saline was added to each sample to a final volume of 200 μL. Serum samples were added to tubes containing buffer and protease. Carrier RNA was added to aid in the isolation of small amounts of DNA. […] After incubating 15 min at 56° C., nucleic acids were precipitated from the lysates with ethanol and the entire solution applied to a column. After washing, the samples were eluted into a volume of 50 μL Buffer AVE.
The number of copies of HBV genomes in DNA isolated from the pHBV mouse model serum was determined by qPCR. Plasmid pSEAP-HBV353-777, encoding a short segment of the HBV genome within the S gene (bases 353-777 of GenBank accession #V01460), was used to create a six log standard curve. Samples with recovery of DNA below 2 standard deviations from the average, based on detection of pHCR/UbC-SEAP were omitted. TaqMan chemistry-based primers and probes with fluor/ZEN/IBFQ are utilized.
qPCR assays were performed on a 7500 Fast or StepOne Plus Real-Time PCR system (Life Technologies). For evaluation of HBV DNA in serum, DNA was isolated from singlet or duplicate purification steps from pooled group serum samples. Quantitations of HBV DNA and recovery control plasmid were determined by qPCR reactions performed in triplicate. The probes to quantitate HBV and pHCR/UbC-SEAP were included in each reaction.
For this study, Male FRG® (genotype Fah −/−/Rag2−/−/Il2rg −/− triple knockout mice on a C57BL/6 background (Yecuris) were transplanted with human hepatocytes when they were 1-2 months old. The human hepatocytes were allowed to repopulate the liver for approximately 6 months with periodic NTBC treatment to discourage growth of mouse hepatocytes. At 9 months of age the mice were given an intravenous inoculation of 4×10^8 genomes/kg HBV genotype C, which infected the human hepatocytes. After 2-3 months, serum HBV DNA levels reached a plateau indicating the human hepatocytes were maximally infected (mouse hepatocytes cannot be infected by HBV). Mice were one year old at the start of treatment with HBV RNAi agents, thus nearing the end of their life span.
Pre-treatment serum samples were taken on day −10 and day −3. Beginning on day 1, each mouse was administered an oral daily gavage with 0.01 mg/kg Entecavir dissolved in water to inhibit HBV replication. Daily dosing of Entecavir continued until the day mice were euthanized. Entecavir administration was expected to reduce serum HBV DNA in chronically infected human patients, but not reduce HBsAg.
Each mouse was also given a subcutaneous administration of 100 μl per 20 grams body weight containing the amount of HBV RNAi agent(s) formulated in phosphate buffered saline, or an equal volume of phosphate buffered saline without an HBV RNAi agent, on day 1 and on day 29 (if still alive on day 29), pursuant to the schedule as set forth in Table 47, directly above. […] The injections were performed between the skin and muscle (i.e. subcutaneous injections) into the loose skin over the neck and shoulder area.
Additionally, serum HBV DNA levels were determined from serum samples collected on days −10, −3, 8, 15, 22, 29, 36, and 40, pursuant to the procedure set forth in Example 2, above.

For C=C1[C@H](CO)[C@@H](O)C[C@@H]1n1cnc2c(=O)[nH]c(N)nc21 [Entecavir], the “Average HBsAg levels normalized to pre-treatment (day −3)” value [1] was 0.830, the “viral replication (serum HBV DNA)” value ([2]; Example 18, 0.01 mg/kg Entecavir oral daily gavage) was “reduced viral replication in both the absence and presence of HBV RNAi agents” and the “Serum HBV DNA levels normalized to the average of pre-treatment day −10 and day −3” value (“Serum HBV DNA levels normalized” below) ([2]; mouse A-1, Day 8) was 0.072. For the same compound, the “Serum HBV DNA levels normalized” value ([2]; mouse A-1, Day 15) was 0.038, the “Serum HBV DNA levels normalized” value ([2]; mouse A-1, Day 22) was 0.015 and the “Serum HBV DNA levels normalized” value ([2]; mouse A-1, Day 29) was 0.027. The “Serum HBV DNA levels normalized” value ([2]; mouse A-1, Day 36) was 0.060, the “Serum HBV DNA levels normalized” value ([2]; mouse A-2, Day 8) was 0.130 and the “Serum HBV DNA levels normalized” value ([2]; mouse A-2, Day 15) was 0.075.
